“And” between values parts separate entries of the source, which are not always exact repeats. Equal entries are not always repeated.
Tested on: patients with prior myocardial infarction (CARE study)
Assay: CARE aligned analysis (prospective and case/control design, white males): association of genotypes with pravastatin efficacy (Tables 13, 15)
Type: in vivo, human
Conditions: for Pravastatin Patients n/total: WM
Method: The data presented in Table 8 based on an association of genotypes with pravastatin efficacy of the CARE samples were further analyzed and presented in Table 13. The further analysis was performed to align the data obtained from the analysis of the CARE samples, which was a prospective study, to the analysis of the WOSCOP samples, which was a case/control study. Table 13 also presents an analysis of the association of genotypes with pravastatin efficacy in the WOSCOPs samples. Relative to the analysis performed on the data presented in Table 8, there are two significant differences to determine if the SNP influenced pravastatin efficacy. Data obtained from the CARE samples were separated by study design into two groups, those in the prospective study design group and those in the case/control study design group. The original care study contained 16 protocol defined cardiovascular disease defined endpoints and 150 other phenotypes. […] The control groups used to compare the data were also divided into two groups, the “all possible” control group and the “cleaner” control group. […] Because the participants in the WOSCOPs trial were all white males, only data obtained from white males in the CARE study were analysed. Data from the “all possible” and “cleaner” controls were compared to data obtained from the cases in the prospective study design while only data from “cleaner” controls were compared to cases in the case/control study design. The data from the case/control cohorts were analysed using conditional logistic regression (as opposed to logistic regression used for the original anaylsis).
The anaylsis was refined as described for both Tables 13 and 14.

[1] = PRKCQ hCV15954277, CARE, Case/Control, F MI/SD/NF MI
[2] = PRKCQ hCV15954277, CARE, Prospective, F MI/SD/NF MI
[3] = SERPINA5 hCV9596963, CARE Case/Control, F MI/SD/NF MI
[4] = SN hCV25623265, CARE Case/Control, F MI/SD/NF MI
[5] = SN hCV25623265, CARE Prospective, F MI/SD/NF MI
[6] = TAP1 hCV549926, CARE Case/Control, F MI/SD/NF MI
[7] = TAP1 hCV549926, CARE Prospective, F MI/SD/NF MI
[8] = TIMP2 hCV25629888, CARE Case/Control, F MI/SD/NF MI
[9] = TNF hCV7514879, CARE Case/Control, F MI/SD/NF MI
[10] = TNF hCV7514879, CARE Prospective, F MI/SD/NF MI
[11] = VTN hCV2536595, CARE Case/Control, F MI/SD/NF MI
[12] = VTN hCV2536595, CARE Prospective, F MI/SD/NF MI

CC[C@H](C)C(=O)O[C@H]1C[C@H](O)C=C2C=C[C@H](C)[C@H](CC[C@@H](O)C[C@@H](O)CC(=O)O)[C@H]21 [pravastatin]
n/total (%) cases, Pravastatin Patients, 2 Rare Alleles (PON1 hCV2548962, 2 rare alleles, CARE Prospective, Total CHD Events, All Possible controls, White Males): 18/107 (16.8%)
Pravastatin Patients n/total (PPOX hCV25922816, 0 Rare Alleles, CARE Prospective, F&NF MI, Cleaner controls): 116/721
Pravastatin Patients n/total (PPOX hCV25922816, 1 Rare Allele, CARE Case/Control, F&NF MI, All Possible controls): 10/164
Pravastatin Patients n/total (PPOX hCV25922816, 1 Rare Allele, CARE Prospective, F&NF MI, All Possible controls): 10/169
Pravastatin Patients n/total (PPOX hCV25922816, 1 Rare Allele, CARE Prospective, F&NF MI, Cleaner controls): 10/113
2 Rare Alleles (%), Pravastatin Patients (PPOX hCV25922816, CARE Case/Control, F&NF MI): (16.7%)
2 Rare Alleles (%), Pravastatin Patients (PPOX hCV25922816, CARE Prospective, F&NF MI): (16.7%)
2 rare alleles n/total (%), pravastatin patients [1]: (11.2%)
Pravastatin vs placebo odds ratio, 0 rare alleles [1]: 0.58
Pravastatin vs placebo odds ratio, 1 rare allele [1]: 1.04
Pravastatin vs placebo odds ratio, 2 rare alleles [1]: 3.15
Pravastatin vs placebo odds ratio, 0 rare alleles [2]: 0.57 and 0.56
Pravastatin vs placebo odds ratio, 1 rare allele [2]: 1.08 and 0.85
Pravastatin vs placebo odds ratio, 2 rare alleles [2]: 3.38 and 2.80
2 Rare Alleles (%), Pravastatin Patients (SELL hCV16172571, CARE Case/Control, F&NF MI): (14.3%)
2 Rare Alleles (%), Pravastatin Patients (SELL hCV16172571, CARE Prospective, F&NF MI): (12.9%)
2 Rare Alleles (%), Pravastatin Patients (SELL hCV25474627, CARE Case/Control, F&NF MI): (14.8%)
2 Rare Alleles (%), Pravastatin Patients (SELL hCV25474627, CARE Prospective, F&NF MI): (13.3%)
2 Rare Alleles (%), Pravastatin Patients (SERPINA1 hCV25640504, CARE Case/Control, F&NF MI): (8.6%)
2 Rare Alleles (%), Pravastatin Patients (SERPINA1 hCV25640504, CARE Prospective, F&NF MI): (8.4%)
2 Rare Alleles (%), Pravastatin Patients [3]: (15.1%)
2 Rare Alleles n/total, Pravastatin Patients [3]: 21/139
Pravastatin vs placebo odds ratio, 0 rare alleles [3]: 0.89
Pravastatin vs placebo odds ratio, 1 rare allele [3]: 0.57
Pravastatin vs placebo odds ratio, 2 rare alleles [3]: 1.72
2 Rare Alleles (%), Pravastatin Patients (SERPINI2 hCV370782, CARE Case/Control, F&NF MI): (16.2%)
2 Rare Alleles (%), Pravastatin Patients (SERPINI2 hCV370782, CARE Prospective, F&NF MI): (15.8%)
2 Rare Alleles (%), Pravastatin Patients [4]: (7.5%)
2 Rare Alleles n/total, Pravastatin Patients [4]: 13/173
Pravastatin vs placebo odds ratio, 0 rare alleles [4]: 0.71
Pravastatin vs placebo odds ratio, 1 rare allele [4]: 1.02
Pravastatin vs placebo odds ratio, 2 rare alleles [4]: 0.30
2 Rare Alleles (%), Pravastatin Patients [5]: (7.5%)
2 Rare Alleles n/total, Pravastatin Patients [5]: 13/174
Pravastatin vs placebo odds ratio, 0 rare alleles [5]: 0.72
Pravastatin vs placebo odds ratio, 1 rare allele [5]: 0.98
Pravastatin vs placebo odds ratio, 2 rare alleles [5]: 0.31
2 Rare Alleles n/total, Pravastatin Patients [6]: 1/36 and 1/25
Pravastatin vs placebo odds ratio, 0 rare alleles [6]: 0.98 and 0.89
Pravastatin vs placebo odds ratio, 1 rare allele [6]: 0.61 and 0.56
Pravastatin vs placebo odds ratio, 2 rare alleles [6]: 0.08
2 Rare Alleles n/total, Pravastatin Patients [7]: 1/36 and 1/25
Pravastatin vs placebo odds ratio, 0 rare alleles [7]: 1.00 and 0.88
Pravastatin vs placebo odds ratio, 1 rare allele [7]: 0.60 and 0.55
Pravastatin vs placebo odds ratio, 2 rare alleles [7]: 0.09 and 0.08
2 Rare Alleles (%), Pravastatin Patients [8]: (29.2%)
2 Rare Alleles n/total, Pravastatin Patients [8]: 7/24
Pravastatin vs placebo odds ratio, 0 rare alleles [8]: 0.76
Pravastatin vs placebo odds ratio, 1 rare allele [8]: 0.56
Pravastatin vs placebo odds ratio, 2 rare alleles [8]: 6.81
2 Rare Alleles (%), Pravastatin Patients [9]: (8.8%)
2 Rare Alleles n/total, Pravastatin Patients [9]: 3/34
Pravastatin vs placebo odds ratio, 0 rare alleles [9]: 0.87
Pravastatin vs placebo odds ratio, 1 rare allele [9]: 0.52
Pravastatin vs placebo odds ratio, 2 rare alleles [9]: 0.14
2 Rare Alleles (%), Pravastatin Patients (TNF hCV7514879, CARE Case/Control, F&NF MI): (8.8%)
2 Rare Alleles (%), Pravastatin Patients [10]: (8.6%)
2 Rare Alleles n/total, Pravastatin Patients [10]: 3/35
Pravastatin vs placebo odds ratio, 0 rare alleles [10]: 0.88
Pravastatin vs placebo odds ratio, 1 rare allele [10]: 0.50
Pravastatin vs placebo odds ratio, 2 rare alleles [10]: 0.12
2 Rare Alleles (%), Pravastatin Patients (TNF hCV7514879, CARE Prospective, F&NF MI): (8.6%)
2 Rare Alleles n/total, Pravastatin Patients [11]: 21/260 and 21/168
Pravastatin vs placebo odds ratio, 0 rare alleles [11]: 1.51 and 1.37
Pravastatin vs placebo odds ratio, 1 rare allele [11]: 0.63 and 0.56
Pravastatin vs placebo odds ratio, 2 rare alleles [11]: 0.66 and 0.64
2 Rare Alleles (%), Pravastatin Patients [12]: (7.9%)
2 Rare Alleles n/total, Pravastatin Patients [12]: 21/266 and 21/174
Pravastatin vs placebo odds ratio, 0 rare alleles [12]: 1.54 and 1.31
Pravastatin vs placebo odds ratio, 1 rare allele [12]: 0.65 and 0.58
Pravastatin vs placebo odds ratio, 2 rare alleles [12]: 0.63 and 0.61

— patent US9932637B2, “Genetic polymorphisms associated with cardiovascular disorders and drug response, methods of detection and uses thereof” (CELERA CORPORATION, priority 2003, dated 2018)
